We go through eleven compounds from patent publication US20250082763A1, “COMBINATION DRUG FOR TREATING TRIPLE-NEGATIVE BREAST CANCER” (HINOVA PHARMACEUTICALS INC., priority 2022, published 2025).

Format in all cases: cell-based
In assay [1] the test system is MDA-MB-453 cells. The assay is described as follows: Inhibition of proliferation of MDA-MB-453 cells (CCK-8 or CTG, 7-10 days). Particulars: co-incubation 7-10 days, CCK-8 or CTG, read-out: IC50 values against MDA-MB-453 cells. As to the method: Triple negative breast cancer MDA-MB-453 cells in logarithmic growth stage were inoculated into a 96-well plate at a concentration of 4×10^3 cells/well, and then incubated in an incubator at 37° C., 5% CO2, and saturated humidity for 24 h or 48 h. To the negative control well, was added RPMI 1640 cell medium containing 10% fetal bovine serum in the same volume as the drug. After cultured for 24 h or 48 h, to the 96-well plate, were added AR PROTACs compounds 162, 177, 230, 259, 279, 281, 282, 325, 357, 400, ARV-110, ARV-766 and AR inhibitor HC-1119, respectively. The concentrations of compounds 177, 230, 259, 279, 281, 282, 325, 357, 400, ARV-110, and ARV-766 are 0 μM, 0.002 μM, 0.005 μM, 0.014 μM, 0.041 μM, 0.123 μM, 0.370 μM, 1.111 μM, 3.333 μM or 10 μM; while the concentrations of HC-1119 are 0 μM, 1.23 μM, 3.70 μM, 11.11 μM, 33.33 μM or 100 μM.
(§1) After addition of the drugs and co-incubation for 7-10 days, 10 μL of CCK-8 was added to each well, and then the plate was further cultured for 2 h. The absorbance value (OD) of each well was measured using a microplate reader at a wavelength of 450 nm. The survival rate was calculated using Prism software, the relative survival rate=(OD value of drug well/OD value of control well)×100%. Alternatively, 100 μL of medium was removed from each well, and then 50 μL of CTG was added. The plate was shaken in the dark for 2 min, allowed to stand for 10 min, and then measured using a microplate reader in Luminescence mode. Prism software was used to calculate the survival rate, the relative survival rate=(the RLU value of drug well/the RLU value of control well)×100%.

A further assay relates to MDA-MB-453. As to the kind of experiment: Antiproliferation, CellTiter-Glo, 5 days, MDA-MB-453. Particulars: MDA-MB-453, AR+ TNBC. As to the method: (§2) For MDA-MB-453, MFM-223, SUM159PT, MDA-MB-468, and HCC1937, 4,000, 3,000, 1,000, 3,000, and 3,000 cells were plated per well in 96-well microplates (Corning Inc), respectively. Cells were treated with serial dilutions of tested compounds with the maximum working concentration of 10 μM. Cell survival was measured 5 days later using a CellTiter-Glo luminescent cell viability assay kit (Promega Corporation). Luminescence was recorded by FLUOstar Omega microplate reader (BMG Labtech). Half maximal inhibitory concentration (IC50) was determined with GraphPad Prism using baseline correction (by normalizing to dimethyl sulfoxide (DMSO) control)

Another assay relates to SUM159PT. The assay is described as follows: Antiproliferation, CellTiter-Glo, 5 days, SUM159PT. Conditions: AR+ TNBC. On the procedure:
Cells were treated with serial dilutions of tested compounds with the maximum working concentration of 10 μM. Cell survival was measured 5 days later using a CellTiter-Glo luminescent cell viability assay kit (Promega Corporation). Luminescence was recorded by FLUOstar Omega microplate reader (BMG Labtech). Half maximal inhibitory concentration (IC50) was determined with GraphPad Prism using baseline correction (by normalizing to dimethyl sulfoxide (DMSO) control)

The test system of another assay is MFM-223. The assay is described as follows: Antiproliferation, CellTiter-Glo, 5 days, MFM-223. Particulars: MFM-223, AR+ TNBC. On the procedure:
as §2

A further assay relates to MDA-MB-468. As to the kind of experiment: Antiproliferation, CellTiter-Glo, 5 days, MDA-MB-468. Particulars: MDA-MB-468, AR− TNBC. As to the method: as §2
For a further assay, the system named is HCC1937. The assay is described as follows: Antiproliferation, CellTiter-Glo, 5 days, HCC1937. Particulars: HCC1937, AR− TNBC. As to the method:
as §2

Assay [2] deals with MDA-MB-453 cells. As to the kind of experiment: Combination with PI3K inhibitor Alpelisib, proliferation of MDA-MB-453 cells, Combination Index. Particulars: molar ratio to Alpelisib 1:27-9:1, 7 days. As to the method:
Triple negative breast cancer MDA-MB-453 cells in logarithmic growth stage were inoculated into a 96-well plate at a concentration of 4×10^3 cells/well, and then incubated in an incubator at 37° C., 5% CO2, and saturated humidity for 24 h. To the negative control wells, were added RPMI 1640 cell culture medium containing 10% fetal bovine serum in the same volume as the drug. After cultured for 24 h, to the 96-well plate, were sequentially added AR PROTACs compounds 279, 281, 282, ARV-110, ARV-766 and PI3K inhibitor Alpelisib, respectively.
as §1, with “7” for “7-10”

Assay [3] has as its system MDA-MB-453 cells. As to the kind of experiment: Combination with PI3K inhibitor Idelalisib, proliferation of MDA-MB-453 cells, Combination Index. Conditions: molar ratio to Idelalisib 1:270-1:3.333, 7-10 days. On the procedure:
Triple negative breast cancer MDA-MB-453 cells in logarithmic growth stage were inoculated into a 96-well plate at a concentration of 4×10^3 cells/well, and then incubated in an incubator at 37° C., 5% CO2, and saturated humidity for 24 h. To the negative control wells, were added RPMI 1640 cell culture medium containing 10% fetal bovine serum in the same volume as the drug. After cultured for 24 h, to the 96-well plate, were sequentially added AR PROTACs compounds 279, 281, 282, ARV-110, ARV-766 and PI3K inhibitor Idelalisib, respectively.
as §1, with “adding” for “addition of”, “co-incubating” for “co-incubation”

In assay [4] the test system is MDA-MB-453 cells. The assay is described as follows: Combination with PI3K inhibitor Duvelisib, proliferation of MDA-MB-453 cells, Combination Index. Particulars: molar ratio to Duvelisib 1:30-1:1.111, 7-10 days. As to the method: Triple negative breast cancer MDA-MB-453 cells in logarithmic growth stage were inoculated into a 96-well plate at a concentration of 4×10^3 cells/well, and then incubated in an incubator at 37° C., 5% CO2, and saturated humidity for 24 h. To the negative control wells, were added RPMI 1640 cell culture medium containing 10% fetal bovine serum in the same volume as the drug. After cultured for 24 h, to the 96-well plate, were sequentially added AR PROTACs compounds 279, 281, 282, ARV-110 and PI3K inhibitor Duvelisib, respectively.
as §1, with “adding” for “addition of”, “co-incubating” for “co-incubation”

The subject of assay [5] is MDA-MB-453 cells. As to the kind of experiment: Combination with chemotherapeutic drug Paclitaxel, proliferation of MDA-MB-453 cells, Combination Index. Conditions: molar ratio to Paclitaxel 20:1-5000:1, 7 days. On the procedure:
Triple negative breast cancer MDA-MB-453 cells in logarithmic growth stage were inoculated into a 96-well plate at a concentration of 4×10^3 cells/well, and then incubated in an incubator at 37° C., 5% CO2, and saturated humidity for 24 h. To the negative control wells, were added RPMI 1640 cell culture medium containing 10% fetal bovine serum in the same volume as the drug. After cultured for 24 h, to the 96-well plate, were sequentially added AR PROTACs compounds 279, 281, 282, ARV-110 and chemotherapeutic drug Paclitaxel, respectively.
as §1, with “adding” for “addition of”, “co-incubating” for “co-incubation”, “7” for “7-10”

Like-named read-outs stand apart in the source and are kept apart here. Some results are limits rather than exact numbers.

In the case of `COc1cc(O[C@H]2C(C)(C)[C@H](NC(=O)c3ccc(N4CCC(CN5CCN(c6ccc(C(=O)N[C@H]7CCC(=O)NC7=O)c(F)c6)CC5)CC4)cc3)C2(C)C)ccc1C#N` [ARV-766], the IC50 was at most 2000 nM in the assay on MDA-MB-453 cells [1] (Homo sapiens); 1100 nM in the assay with MDA-MB-453 (Homo sapiens, 120 h); 380 nM in the assay with SUM159PT (Homo sapiens, SUM-159-PT, 120 h); 5400 nM in the assay on MFM-223 (Homo sapiens, 120 h); above 10000 nM in the assay with MDA-MB-468 (Homo sapiens, 120 h); above 10000 nM in the assay with HCC1937 (Homo sapiens, 120 h). The “effect of the combination with Alpelisib on inhibiting proliferation (CI<1 = synergistic)” value with MDA-MB-453 cells [2] is listed as “synergistic effect”. In the assay with MDA-MB-453 cells [3], the “effect of the combination with Idelalisib on inhibiting proliferation (CI<1 = synergistic)” value is “synergistic effect”.
With `N#Cc1ccc(O[C@H]2CC[C@H](NC(=O)c3ccc(N4CCC5(CCN(CC6CCN(c7cc8c(cc7F)C(=O)N(C7CCC(=O)NC7=O)C8=O)CC6)C5)C4)nn3)CC2)cc1Cl` (stereo partly shown) [Compound 162], the IC50 in the assay with MDA-MB-453 cells [1] (Homo sapiens) was above 2000 nM.
The same measure, in the same setting: under `N#Cc1ccc(O[C@H]2CC[C@H](NC(=O)c3cnc(N4C[C@@H]5[C@@H](CN6CCN(c7ccc8c(c7)C(=O)N(C7CCC(=O)NC7=O)C8=O)CC6)[C@@H]5C4)cn3)CC2)cc1Cl` (stereo partly shown) [Compound 177] stands above 2000 nM.
On the same count and under the same terms, as for `N#Cc1ccc(O[C@H]2CC[C@H](NC(=O)c3ccc(N4CCC(CN5CCC6(CC5)CN(c5ccc7c(c5)C(=O)N(C5CCC(=O)NC5=O)C7=O)C6)CC4)nn3)CC2)cc1Cl` (stereo partly shown) [Compound 230], the figure is above 2000 nM; as for `N#Cc1ccc(O[C@H]2CC[C@H](NC(=O)c3ccc(N4CC5CN(CC6CCN(c7cc8c(cc7F)C(=O)N(C7CCC(=O)NC7=O)C8=O)CC6)CC5C4)nn3)CC2)cc1Cl` (stereo partly shown) [Compound 259], above 2000 nM.
Consider `N#Cc1ccc(O[C@H]2CC[C@H](NC(=O)c3ccc(N4CCC(N5CCC6(CC5)CN(c5ccc7c(c5)C(=O)N(C5CCC(=O)NC5=O)C7=O)C6)CC4)nn3)CC2)cc1Cl` (stereo partly shown) [Compound 281], for which, in the assay on MDA-MB-453 cells [1] (Homo sapiens), the IC50 is at most 2000 nM. Moreover, the “effect of the combination with Alpelisib on inhibiting proliferation (CI<1 = synergistic)” value in the assay with MDA-MB-453 cells [2] is “synergistic effect”. The “effect of the combination with Duvelisib on inhibiting proliferation (CI<1 = synergistic)” value in the assay with MDA-MB-453 cells [4] was “synergistic effect”. The “effect of the combination with Idelalisib on inhibiting proliferation (CI<1 = synergistic)” value in the assay with MDA-MB-453 cells [3] is on record as “synergistic effect”. For the same compound, the “effect of the combination with Paclitaxel on inhibiting proliferation (CI<1 = synergistic)” value with MDA-MB-453 cells [5] is recorded as “synergistic effect”.
With `N#Cc1ccc(O[C@H]2CC[C@H](NC(=O)c3ccc(N4CC5(CCN(CC6CCN(c7ccc8c(c7)C(=O)N(C7CCC(=O)NC7=O)C8=O)CC6)CC5)C4)nn3)CC2)cc1Cl` (stereo partly shown) [Compound 282], in the assay with MDA-MB-453 cells [1] (Homo sapiens), the IC50 is at most 2000 nM. In the assay on MDA-MB-453 cells [2], the “effect of the combination with Alpelisib on inhibiting proliferation (CI<1 = synergistic)” value is recorded as “synergistic effect”. Moreover, in the assay with MDA-MB-453 cells [4], the “effect of the combination with Duvelisib on inhibiting proliferation (CI<1 = synergistic)” value is listed as “synergistic effect”. Also, the “effect of the combination with Idelalisib on inhibiting proliferation (CI<1 = synergistic)” value in the assay on MDA-MB-453 cells [3] is “synergistic effect”. In addition, in the assay with MDA-MB-453 cells [5], the “effect of the combination with Paclitaxel on inhibiting proliferation (CI<1 = synergistic)” value is listed as “synergistic effect”.
For the compound `CC1(C)[C@H](Oc2ccc(C#N)c(Cl)c2)C(C)(C)[C@H]1N1Cc2nc(C#C[C@H]3CC[C@H](N4CCN(c5ccc6c(c5)C(=O)N(C5CCC(=O)NC5=O)C6=O)CC4)CC3)ccc2C1=O` (stereo partly shown) [Compound 325], the IC50 in the assay with MDA-MB-453 cells [1] (Homo sapiens) is above 2000 nM.
On the same count and under the same terms, under `CC1(C)[C@H](Oc2ccc(C#N)c(Cl)c2)C(C)(C)[C@@H]1N1Cc2nc(C#C[C@H]3C[C@H](N4CCN(c5cc6c(cc5F)C(=O)N(C5CCC(=O)NC5=O)C6=O)CC4)C3)ccc2C1=O` (stereo partly shown) [Compound 357] stands at most 2000 nM.
Still for that read-out and setting: under `COc1cc(O[C@H]2C(C)(C)[C@H](N3Cc4nc(C#C[C@H]5CC[C@H](N6CCN(c7ccc8c(c7)C(=O)N(C7CCC(=O)NC7=O)C8=O)CC6)CC5)ccc4C3=O)C2(C)C)ccc1C#N` (stereo partly shown) [Compound 400] stands at most 2000 nM.
As to `CNC(=O)c1ccc(N2C(=S)N(c3ccc(C#N)c(C(F)(F)F)c3)C(=O)C2(C)C)cc1F` [HC-1119], the IC50 with MDA-MB-453 cells [1] was above 2000 nM; in the assay with MDA-MB-453, above 10000 nM; with SUM159PT, above 10000 nM; with MFM-223, above 10000 nM; with MDA-MB-468, above 10000 nM; in the assay on HCC1937 it was above 10000 nM.
